The numbers were not newly measured in PubChem BioAssay AID1259409 (Chemical Carcinogenesis Research Information System (CCRIS), 2018), which cites them from elsewhere.

This data set deals with rodent chemically induced tumor inhibition, incidence and multiplicity. The data set is described as follows: CCRIS tumor inhibitor studies. The note with it: Route [Inhibitor]: ORAL, Species: RAT, Promoter: NONE USED.

Take `O=P(O)(O)OC1C(OP(=O)(O)O)C(OP(=O)(O)O)C(OP(=O)(O)O)C(OP(=O)(O)O)C1OP(=O)(O)O` (stereo unspecified): the “tumour outcome (control, treated, inhibition, significance)” value reads like this: (Carcinogen: 7,12-DIMETHYLBENZ[A]ANTHRACENE, 57-97-6, Dose [Inhibitor]: 0, 2% IN DIET FOR 35 WK BEGINNING POST CARCINOGEN DOSE (STUDY DURATION: 36 WK), Strain/Sex: SPRAGUE-DAWLEY/FEMALE, Target Tissue: Type of Lesion: EAR DUCT: TUMOR, Dose [Carcinogen]: 50 MG/KG BW IN CORN OIL ONCE) 5/15 (33%), 2/15 (13%), 61%, not significant; (Carcinogen: 7,12-DIMETHYLBENZ[A]ANTHRACENE, 57-97-6, Dose [Inhibitor]: 0, 2% IN DIET FOR 35 WK BEGINNING POST CARCINOGEN DOSE (STUDY DURATION: 36 WK), Strain/Sex: SPRAGUE-DAWLEY/FEMALE, Target Tissue: Type of Lesion: MAMMARY GLAND: ADENOCARCINOMA OR FIBROADENOMA, Dose [Carcinogen]: 50 MG/KG BW IN CORN OIL ONCE) 14/15 (93%), 15/15 (100%), -8%, not significant; (Carcinogen: 7,12-DIMETHYLBENZ[A]ANTHRACENE, 57-97-6, Dose [Inhibitor]: 0, 15 MILLIMOLAR IN DRINKING WATER BEGINNING 1 WK PRIOR TO CARCINOGEN DOSE AND CONTINUING FOR 16 WK (STUDY DURATION: 16, Strain/Sex: SPRAGUE-DAWLEY/FEMALE, Target Tissue: Type of Lesion: MAMMARY GLAND: CARCINOMA, Dose [Carcinogen]: 20 MG IN 1 ML SESAME OIL ONCE) 7/10 (70%), 17/21 (81%), -16%, not calculated; (Carcinogen: 7,12-DIMETHYLBENZ[A]ANTHRACENE, 57-97-6, Dose [Inhibitor]: 0, 15 MILLIMOLAR IN DRINKING WATER FOR 47 WK BEGINNING 2 WK PRIOR TO CARCINOGEN DOSE (STUDY DURATION: 47 WK), Strain/Sex: SPRAGUE-DAWLEY/FEMALE, Target Tissue: Type of Lesion: MAMMARY GLAND: TUMOR, Dose [Carcinogen]: 5 MG IN 1 ML CORN OIL ONCE) 37/40 (93%), 27/38 (71%), 24%, p<0.05; (Carcinogen: AZOXYMETHANE, 25843-45-2, Dose [Inhibitor]: 0, 2% IN A HIGH FAT LOW FIBER DIET FOR DURATION OF STUDY BEGINNING 3 WK PRIOR TO CARCINOGEN TREATMENT (STUDY DURATION: 3, Strain/Sex: SPRAGUE-DAWLEY/FEMALE, Target Tissue: Type of Lesion: COLON: TUMOR, Dose [Carcinogen]: 15 MG/KG BW 1/WK FOR 2 WK) 65%, 30%, 54%, p<0.05; (Carcinogen: AZOXYMETHANE, 25843-45-2, Dose [Inhibitor]: 0, 2% IN DRINKING WATER BEGINNING 1 WK POST CARCINOGEN DOSE AND CONTINUING FOR DURATION OF STUDY (STUDY DURATION: 36 WK), Strain/Sex: F344/MALE, Target Tissue: Type of Lesion: COLON: CARCINOMA, Dose [Carcinogen]: 30 MG/KG ONCE AT 6 WK OF AGE) 10/12 (83%), 3/12 (25%), 70%, p=0.0045. Moreover, the “tumour outcome (control, treated, inhibition, significance)” value is, setting by setting: (Carcinogen: AZOXYMETHANE, 25843-45-2, Dose [Inhibitor]: 1% IN DRINKING WATER BEGINNING 1 WK PRIOR TO FIRST CARCINOGEN DOSE (STUDY DURATION: 9 MO), Strain/Sex: F344/MALE, Target Tissue: Type of Lesion: LARGE INTESTINE: CARCINOMA, Dose [Carcinogen]: 8 MG/KG BW INJECTED IN HIND LEG 1/WK FOR 12 WK) 100%, 100%, 0%, not significant; (Carcinogen: AZOXYMETHANE, 25843-45-2, Dose [Inhibitor]: 2% IN DRINKING WATER BEGINNING 2 WK POST LAST CARCINOGEN DOSE (STUDY DURATION: 10 MO), Strain/Sex: F344/MALE, Target Tissue: Type of Lesion: COLON: TUMOR, Dose [Carcinogen]: 8 MG/KG BW INJECTED IN HIND LEG 1/WK FOR 4 WK) 43%, 10%, 77%, not calculated; (Carcinogen: N-METHYL-N-NITROSOUREA, 684-93-5, AZOXYMETHANE, 25843-45-2, Carcinogen: N-METHYL-N-NITROSOUREA, 684-93-5, AZOXYMETHANE, 25843-45-2, Dose [Inhibitor]: 0, 2% IN A HIGH FAT LOW FIBER DIET FOR DURATION OF STUDY BEGINNING 2 WK PRIOR TO CARCINOGEN TREATMENT (STUDY DURATION: 3, Strain/Sex: SPRAGUE-DAWLEY/FEMALE, Target Tissue: Type of Lesion: COLON: TUMOR, Dose [Carcinogen]: 50 MG/KG BW MNU ONCE FOLLOWED BY 15 MG/KG BW AOM 1/WK FOR 2 WK) 70%, 30%, 57%, p<0.05; (Carcinogen: N-METHYL-N-NITROSOUREA, 684-93-5, AZOXYMETHANE, 25843-45-2, Carcinogen: N-METHYL-N-NITROSOUREA, 684-93-5, AZOXYMETHANE, 25843-45-2, Dose [Inhibitor]: 0, 2% IN A HIGH FAT LOW FIBER DIET FOR DURATION OF STUDY BEGINNING 2 WK PRIOR TO CARCINOGEN TREATMENT (STUDY DURATION: 3, Strain/Sex: SPRAGUE-DAWLEY/FEMALE, Target Tissue: Type of Lesion: MAMMARY GLAND: CARCINOMA, Dose [Carcinogen]: 50 MG/KG BW MNU ONCE FOLLOWED BY 15 MG/KG BW AOM 1/WK FOR 2 WK) 100%, 50%, 50%, p<0.05; (Carcinogen: N-METHYL-N-NITROSOUREA, 684-93-5, Dose [Inhibitor]: 0, 2% IN HIGH FAT LOW FIBER DIET FOR DURATION OF STUDY BEGINNING 2 WK PRIOR TO CARCINOGEN TREATMENT (STUDY DURATION: 32, Strain/Sex: SPRAGUE-DAWLEY/FEMALE, Target Tissue: Type of Lesion: MAMMARY GLAND: CARCINOMA, Dose [Carcinogen]: 50 MG/KG BW ONCE) 95%, 40%, 58%, p<0.05.
